Laboratory results as given in patent publication US7105679B2, “Heteroatom containing tetracyclic derivatives as selective estrogen receptor modulators” (priority 2001, dated 2006).
Like-named read-outs stand apart in the source and are kept apart here.

Assays:
[1] = target: T1, human estrogen receptor α (Homo sapiens, UniProt P03372); experiment: Estrogen Receptor α Flash Plate Assay (binding of radiolabeled estrogen)
T1 construct: purchased Panvera
T1 sequence (P03372 1-595): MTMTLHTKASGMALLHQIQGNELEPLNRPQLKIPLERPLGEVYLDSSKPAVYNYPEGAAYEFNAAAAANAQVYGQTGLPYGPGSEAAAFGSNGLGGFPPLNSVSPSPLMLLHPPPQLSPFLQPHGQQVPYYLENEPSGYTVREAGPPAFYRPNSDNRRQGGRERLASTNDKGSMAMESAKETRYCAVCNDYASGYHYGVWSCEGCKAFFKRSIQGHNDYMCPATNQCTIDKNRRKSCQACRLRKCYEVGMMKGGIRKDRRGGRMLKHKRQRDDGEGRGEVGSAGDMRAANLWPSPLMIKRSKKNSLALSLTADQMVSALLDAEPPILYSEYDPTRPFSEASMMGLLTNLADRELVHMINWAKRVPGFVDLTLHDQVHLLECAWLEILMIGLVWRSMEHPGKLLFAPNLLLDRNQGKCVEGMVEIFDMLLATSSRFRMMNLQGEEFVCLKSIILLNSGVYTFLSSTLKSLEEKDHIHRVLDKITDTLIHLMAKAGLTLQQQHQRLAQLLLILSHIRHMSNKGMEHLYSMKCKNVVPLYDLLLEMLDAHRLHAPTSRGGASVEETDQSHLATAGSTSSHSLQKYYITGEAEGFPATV
Description: This assay monitors binding of radiolabeled estrogen to the estrogen receptor. It is performed on a BioMek 2000 (Beckman). Plates are read in a scintillation counter (Packard TopCount), with decreased counts an indication of binding of a compound to the receptor.
The plate was sealed and incubated at 4° C. overnight.
On day two, each well was washed three times with 200 μL PBS, pH 7.2, at room temperature. To each well was then added 98 μL radiolabeled estrogen (0.5 nM, which equals 6 nCi for a 120 Ci/mmol batch, Amersham), diluted in ESB and 5 mM dithiothreitol (DTT). To individual wells were then added 2.5 μL test compound diluted in 30% (v/v) dimethyl sulfoxide/50 mM HEPES, pH 7.5. The wells were mixed three times by aspiration, the plate sealed and incubated at room temperature for one hour. The wells were then counted for 1 min in a TopCount scintillation counter (Packard).

[2] = system: Ishikawa cells; experiment: Alkaline Phosphatase Assay in Human Endometrial Ishikawa Cells (agonist and antagonist mode); assay type: cell-based; conditions: number in brackets = number of tests, NA = no detected activity at test concentration; for IC50: antagonist mode with 10 nM 17β-estradiol; for EC50: agonist mode
Description: This assay was run according to the procedure described by Albert et a., Cancer Res, […], 50(11), 330-6-10, with minor modification.
Ishikawa cells (from ATCC) were maintained in DMEM/F12 (1:1) phenol red free medium (Gibco) supplemented with 10% calf serum (Hyclone). 24 hours prior to testing, the medium was changed to DMEM/F12 (1:1) phenol red free containing 2% calf serum.
Compounds to be tested in the agonist mode were added to the culture media at varying concentrations. Compounds to be treated in the antagonist mode were prepared similarly, and 10 nM 17β-estradiol was also added to the culture media. The cells were then incubated at 37° C. for 3 days. On the fourth day, the media was remove, 1 volume of 1× Dilution Buffer (Clontech) was added to the well followed by addition of 1 volume of Assay Buffer (Clontech). The cells were then incubated at room temperature for 5 minutes. […] The cells were incubated at room temperature for 10 minutes and then quantified on a luminometer. The increase of chemiluminescence over vehicle control was used to calculate the increase in alkaline phosphatase activity.

[3] = system: MCF-7 cells; experiment: MCF-7 Cell Proliferation Assay (14C-thymidine, agonist and antagonist mode); assay type: cell-based; conditions: number in brackets = number of tests, NA = no detected activity at test concentration
Description: This assay was run according to the procedure described by Welshons, et al., (Breast Cancer Res. Treat., 1987, 10(2), 169-75), with minor modification.
Briefly, MCF-7 cells (from Dr. C. Jordan, Northwestern University) were maintained in RPMI 1640 phenol red free medium (Gibco) in 10% FBS (Hyclone), supplemented with bovine insulin and non-essential amino acid (Sigma). The cells were initially treated with 4-hydoxyltamoxifen (10^−8 M) and let stand at 37° C. for 24 hours. Following this incubation with tamoxifen, the cells were treated with compounds at various concentrations.
Compounds to be tested in the agonist mode were added to the culture media at varying concentrations. Compounds to be treated in the antagonist mode were prepared similarly, and 10 nM 17β-estradiol was also added to the culture media. The cells were incubated for 24 hours at 37° C. Following this incubation, 0.1 μCi of ^14C-thymidine (56 mCi/mmol, Amersham) was added to the culture media and the cells were incubated for an additional 24 hours at 37° C. The cells were then washed twice with Hank's buffered salt solution (HBSS) (Gibco) and counted with a scintillation counter. The increase in the ^14C-thymidine in the compound treated cells relative to the vehicle control cells were reported as percent increase in cell proliferation.

[4] = flash plate binding, 0.5 nM radiolabeled estrogen, number in brackets = No. of determinations, NA = no detected activity at test concentration, read-out: Estrogen Receptor α in μM (No.)
[5] = antagonist mode with 10 nM 17β-estradiol
[6] = Homo sapiens, MCF7, antagonist mode with 10 nM 17β-estradiol
[7] = Homo sapiens, MCF7, agonist mode

| SMILES | IC50 [1, 4] | IC50 [2] | IC50 [3, 5] | other results |
| --- | --- | --- | --- | --- |
| OCCCOc1ccc(C2Oc3cc(O)ccc3C3=C2c2ccc(O)cc2OCC3)cc1 (racemic) [Compound 183] | 0.014 µM | 3000 nM | ≥ 10000 nM | – |
| COC(=O)COc1ccc(C2Oc3cc(O)ccc3C3=C2c2ccc(O)cc2OCC3)cc1 (racemic) [Compound 190] | 0.0089 µM | > 10000 nM | > 10000 nM | – |
| CC(C)(C)C(=O)Oc1ccc2c(c1)OC(c1ccc(OCCN3CCCCC3)cc1)C1=C2COc2cc(OC(=O)C(C)(C)C)ccc21 (single isomer, unassigned) [Compound 24] | 5.95 µM | 66 nM | 672 nM | EC50 [2]: > 10000 nM; EC50 ([3]; agonist mode): > 10000 nM |
| CC(C)(C)C(=O)Oc1ccc2c(c1)OC(c1ccc(OCCN3CCCCC3)cc1)C1=C2COc2cc(OC(=O)C(C)(C)C)ccc21 (single isomer, unassigned) [Compound 25] | 1.2 µM | 235 nM | 1390 nM | EC50 [2]: > 10000 nM; EC50 ([3]; agonist mode): > 10000 nM |
| CC(C)(C)C(=O)Oc1ccc2c(c1)OC(c1ccc(OCCN3CCCCC3)cc1)C1=C2COc2cc(O)ccc21 (single isomer, unassigned) [Compound 89, 2,2-Dimethyl-propionic acid 8-hydroxy-11S*-(+)-[4-(2-piperidin-1-yl-ethoxy)-phenyl]-5,11-dihydro-chromeno[4,3-c]chromen-2-yl ester] | > 1 µM | 10 nM | 845 nM | – |
| CC(C)(C)C(=O)Oc1ccc2c(c1)OCC1=C2C(c2ccc(OCCN3CCCCC3)cc2)Oc2cc(O)ccc21 (single isomer, unassigned) [Compound 90, 2,2-Dimethyl-propionic acid 8-hydroxy-5S*(+)-[4-(2-piperidin-1-yl-ethoxy)-phenyl]-5,11-dihydro-chromeno[4,3-c]chromen-2-yl ester] | 0.0066 µM | 57 nM | 1670 nM | – |
| Oc1ccc2c(c1)OC(c1ccc(OCCN3CCCCC3)cc1)C1=C2CCOc2cc(O)ccc21 (single isomer, unassigned) [Compound 99, 5R*-(+)-[4-(2-Piperidin-1-yl-ethoxy)-phenyl]-11,12-dihydro-5H-6,13-dioxa-benzo[3,4]cyclohepta[1,2-a]naphthalene-2,8-diol] | 0.0039 µM | 130 nM | 182 nM | – |
| Oc1ccc2c(c1)OC(c1ccc(OCCN3CCCCC3)cc1)C1=C2CCOc2cc(O)ccc21 (single isomer, unassigned) [Compound 100, 5S*-(−)-[4-(2-Piperidin-1-yl-ethoxy)-phenyl]-11,12-dihydro-5H-6,13-dioxa-benzo[3,4]cyclohepta[1,2-a]naphthalene-2,8-diol] | – | – | – | IC50 [1]: 0.0026 µM; IC50 ([2]; Homo sapiens): 19 nM; IC50 [3, 6]: 75 nM |
| Oc1ccc2c(c1)OC(c1ccc(OCCN3CCCCC3)cc1)C1=C2CCCOc2cc(O)ccc21 (single isomer, unassigned) [Compound 125] | – | 1620 nM | 4700 nM | – |
| Oc1ccc2c(c1)OC(c1ccc(OCCN3CCCCC3)cc1)C1=C2CCCOc2cc(O)ccc21 (single isomer, unassigned) [Compound 126] | – | 78 nM | 245 nM | – |
| Oc1ccc2c(c1)OC(c1ccc(OCCN3CCCCC3)cc1)C1=C2CCOc2ccccc21 (single isomer, unassigned) [Compound 131] | 0.061 µM | 4940 nM | > 10000 nM | – |
| Oc1ccc2c(c1)OC(c1ccc(OCCN3CCCCC3)cc1)C1=C2CCOc2ccccc21 (single isomer, unassigned) [Compound 132] | 0.0048 µM | 548 nM | 1280 nM | – |
| CN(C)CCOc1ccc(C2Oc3ccccc3C3=C2c2ccc(O)cc2OCC3)cc1 (single isomer, unassigned) [Compound 150] | – | 850 nM | 2940 nM | – |
| CN(C)CCOc1ccc(C2Oc3ccccc3C3=C2c2ccc(O)cc2OCC3)cc1 (single isomer, unassigned) [Compound 151] | – | 605 nM | 2760 nM | – |
| CN(C)CCOc1ccc(C2Oc3cc(O)ccc3C3=C2c2ccc(O)cc2OCC3)cc1 (single isomer, unassigned) [Compound 163] | – | 405 nM | 687 nM | – |
| CN(C)CCOc1ccc(C2Oc3cc(O)ccc3C3=C2c2ccc(O)cc2OCC3)cc1 (single isomer, unassigned) [Compound 164] | – | 61 nM | 293 nM | – |
| Oc1ccc2c(c1)OC(c1ccc(OCCN3CCCCCC3)cc1)C1=C2CCOc2cc(O)ccc21 (single isomer, unassigned) [Compound 165] | – | 128 nM | – | – |
| Oc1ccc2c(c1)OC(c1ccc(OCCN3CCCCCC3)cc1)C1=C2CCOc2cc(O)ccc21 (single isomer, unassigned) [Compound 166] | – | 41 nM | – | – |
| COc1ccc2c(c1)O[C@@H](c1ccc(OCCN3CCCCC3)cc1)C1=C2COc2cc(O)ccc21 (single isomer, unassigned) [Compound 176, 8-Methoxy-5S-[4-(2-piperidin-1-yl-ethoxy)-phenyl]-5,11-dihydro-chromeno[4,3-c]chromen-2-ol] | 0.024 µM | – | – | – |
| CC(C)(C)C(=O)Oc1ccc2c(c1)OC(c1ccc(OCCN3CCCCC3)cc1)C1=C2CCOc2cc(OC(=O)C(C)(C)C)ccc21 (single isomer, unassigned) [Compound 179] | – | 9 nM | 1870 nM | – |
| CC(C)(C)C(=O)Oc1ccc2c(c1)OC(c1ccc(OCCN3CCCCC3)cc1)C1=C2CCOc2cc(OC(=O)C(C)(C)C)ccc21 (single isomer, unassigned) [Compound 180] | – | 0.9 nM | 655 nM | – |
| COC1Oc2cc(OC(=O)C(C)(C)C)ccc2C2=C1c1ccc(OC(=O)C(C)(C)C)cc1OC2c1ccc(OCCN2CCCCC2)cc1 (centres unmarked) [Compound 27] | 0.69 µM | – | – | – |
| CC(C)(C)C(=O)Oc1ccc2c(c1)OC(C)(c1ccc(OCCN3CCCC3)cc1)C1=C2COc2cc(OC(=O)C(C)(C)C)ccc21 (centres unmarked) [Compound 30, 2,2-Dimethyl-propionic acid, 8-(2,2-dimethyl-propionyloxy)-5-methyl-5-[4-(2-pyrrolidin-1-yl-ethoxy)-phenyl]-5,11-dihydro-chromeno[4,3-c]chromen-2-yl ester] | – | – | – | EC50 ([2]; Homo sapiens): > 10000 nM; IC50 ([2]; Homo sapiens): 630 nM; EC50 [3, 7]: > 10000 nM; IC50 [3, 6]: 2200 nM |
| CC(C)(C)C(=O)Oc1ccc2c(c1)OC(C)(c1ccc(OCCN3CCCCCC3)cc1)C1=C2COc2cc(OC(=O)C(C)(C)C)ccc21 (centres unmarked) [Compound 33, 11-[4-(2-azepan-1-yl-ethoxy)-phenyl]-8-(2,2-dimethyl-propionyloxy)-11-methyl-5,11-dihydro-chromeno[4,3-c]chromen-2-yl ester] | – | – | – | EC50 ([2]; Homo sapiens): > 10000 nM; IC50 ([2]; Homo sapiens): 1000 nM; EC50 [3, 7]: > 10000 nM; IC50 [3, 6]: 4800 nM |
